Among the data in patent US20210198277A1, “AMINE-SUBSTITUTED ARYL OR HETEROARYL COMPOUNDS” (Epizyme, Inc., priority 2016, published 2021) are IC50 values, retold here.

As a reminder, the IC50 is the midpoint of a concentration-inhibition curve.

Structures are written as SMILES.

The target in one experiment is T1, EHMT1 (Homo sapiens, UniProt Q9H9B1).
T1 sequence (Q9H9B1 1-1298): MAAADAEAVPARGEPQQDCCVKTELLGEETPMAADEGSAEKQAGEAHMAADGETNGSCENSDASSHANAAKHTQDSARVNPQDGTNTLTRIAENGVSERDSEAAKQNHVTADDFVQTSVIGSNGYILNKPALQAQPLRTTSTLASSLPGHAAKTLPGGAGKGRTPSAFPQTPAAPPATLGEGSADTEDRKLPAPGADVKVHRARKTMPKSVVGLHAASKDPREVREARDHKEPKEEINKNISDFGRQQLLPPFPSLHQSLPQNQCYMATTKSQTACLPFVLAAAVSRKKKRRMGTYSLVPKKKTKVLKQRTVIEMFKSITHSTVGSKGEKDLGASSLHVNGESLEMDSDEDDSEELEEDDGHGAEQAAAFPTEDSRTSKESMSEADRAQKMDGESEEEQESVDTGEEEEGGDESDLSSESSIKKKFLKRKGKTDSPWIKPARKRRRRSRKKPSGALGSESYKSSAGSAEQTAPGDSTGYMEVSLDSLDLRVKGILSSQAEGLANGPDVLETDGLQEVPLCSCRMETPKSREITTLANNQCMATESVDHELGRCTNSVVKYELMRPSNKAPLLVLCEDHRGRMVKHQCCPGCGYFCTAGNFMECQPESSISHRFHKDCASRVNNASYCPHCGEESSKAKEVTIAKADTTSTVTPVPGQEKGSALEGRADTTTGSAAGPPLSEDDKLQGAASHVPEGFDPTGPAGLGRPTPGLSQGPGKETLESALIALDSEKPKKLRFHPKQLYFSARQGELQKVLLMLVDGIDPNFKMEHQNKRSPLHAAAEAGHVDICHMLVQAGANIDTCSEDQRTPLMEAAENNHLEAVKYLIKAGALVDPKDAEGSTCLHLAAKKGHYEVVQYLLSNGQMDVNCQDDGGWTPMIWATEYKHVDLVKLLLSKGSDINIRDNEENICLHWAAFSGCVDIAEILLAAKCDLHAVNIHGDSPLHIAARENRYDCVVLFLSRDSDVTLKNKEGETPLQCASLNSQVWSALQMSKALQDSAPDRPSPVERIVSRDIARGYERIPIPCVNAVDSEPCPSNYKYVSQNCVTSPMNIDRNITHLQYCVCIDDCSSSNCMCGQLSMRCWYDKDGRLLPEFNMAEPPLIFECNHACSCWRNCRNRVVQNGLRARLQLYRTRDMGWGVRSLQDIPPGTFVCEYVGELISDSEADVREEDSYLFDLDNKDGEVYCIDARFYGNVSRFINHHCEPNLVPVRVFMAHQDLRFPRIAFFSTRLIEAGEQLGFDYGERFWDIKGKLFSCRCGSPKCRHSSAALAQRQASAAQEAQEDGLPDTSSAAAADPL
The experiment is described as follows: EHMT1 enzyme assay on peptide substrate (EHMT1 PEP). It counts as biochemical. The following applies: Table VI; read-out: EHMT1 PEP IC50.
With `COc1cc2c(C)nc(N3CCOCC3)nc2cc1OCCCN1CCCC1` [Compound 762], the IC50 is greater than 10000 nM.
In the case of `CNc1nc(C2CN(C)C2)c2cc(OC)c(OCCCN3CCCC3)cc2n1` [Compound 753], the IC50 was less than 100 nM.
Take `CNc1nc(C2CCN(C3CCOC3)CC2)c2cc(OC)c(OCCCN3CCCC3)cc2n1` (stereo not drawn) [Compound 759]: the IC50 is less than 100 nM.
Regarding `COc1cc2c(C3CCN(C4CCOCC4)CC3)cc(C)nc2cc1OCCCN1CCCC1` [Compound 755], the IC50 is less than 100 nM.
Take `COc1cc2c(C3CCN(C4CCOC4)CC3)cc(C)nc2cc1OCCCN1CCCC1` (stereo not drawn) [Compound 756]: the IC50 was less than 100 nM.
Still for that read-out and setting: in the case of `COc1ccc(Nc2nc(C)cc(NC3CCCOC3)n2)cc1OCCCN1CCCC1` (stereo not drawn) [Compound 788] it was less than 100 nM; in that of `COc1ccc(Nc2nc(C)cc(NC3CCOC3)n2)cc1OCCCN1CCCC1` (stereo not drawn) [Compound 789], less than 100 nM; in that of `COc1cc2c(C3CN(C)C3)nc(C)nc2cc1OCCCN1CCCC1` [Compound 754], 1000 to 10000 nM.
In the case of `CNc1cc(C2CCN(C3CCOCC3)CC2)c2cc(OC)c(OCCCN3CCCC3)cc2n1` [Compound 757], the IC50 was less than 100 nM.
Same read-out and setting: in the case of `CNc1cc(C2CCN(C3CCOC3)CC2)c2cc(OC)c(OCCCN3CCCC3)cc2n1` (stereo not drawn) [Compound 758] it was less than 100 nM.
On the same count and under the same terms, then `COc1cc2c(C3CCN(C4CCOC4)CC3)nc(C)nc2cc1OCCCN1CCCC1` (stereo not drawn) [Compound 760], with 1000 to 10000 nM.
For the compound `CNc1cc2sccc2c(Nc2cc(OCCCN3CCCC3)c(OC)cn2)n1` [Compound 609], the concentration for half-maximal inhibition (IC50) lay in the range of 100 to 1000 nM.
Still for that read-out and setting: then `CNc1nc(C2CCN(C)C2)c2cc(OC)c(OCCCN3CCCC3)cc2n1` (stereo not drawn) [Compound 748], with 100 to 1000 nM; and `COc1ccc(Nc2nc(C)cc(NC3CCCN(C)C3)n2)cc1OCCCN1CCCC1` (stereo not drawn) [Compound 787], with less than 100 nM; and `CNc1nc(C2CCCCN2C)c2cc(OC)c(OCCCN3CCCC3)cc2n1` (stereo not drawn) [Compound 747], with 100 to 1000 nM.
In the case of `COc1cc2c(C#CCN3CCOCC3)cc(C)nc2cc1OCCCN1CCCC1` [Compound 763], the IC50 is greater than 10000 nM.

The same experiment, now with this note: Table VII; read-out: EHMT1 PEP IC50.
`CNc1ccnc(Nc2ccc(OC)c(OCC3(O)CCN(C)C3)c2)n1` (stereo not drawn) [Compound 1097]: the IC50 is 1000 to 10000 nM.
On the same count and under the same terms, then `CNc1ccnc(Nc2ccc(OC)c(OCC[C@@H]3CCCN3)c2)n1` [Compound 1087], with 100 to 1000 nM.
On to `CNc1ccnc(Nc2cnc(OC)c(ONCCN3CCCC3)c2)n1` [Compound 1064], for which the IC50 is less than 100 nM.
As to `CNCCNCc1cc(Nc2nc(C)cc(NC)n2)ccc1OC` [Compound 1080], the 50% inhibitory concentration (IC50) is less than 100 nM.
On to `CNc1ccnc(Nc2ccc(OC)c(OC[C@H]3CN(C)CCO3)c2)n1` [Compound 1067], for which the IC50 is greater than 10000 nM.
Turning to `CNc1cc(C)nc(Nc2ccc(OC)c(CNCCN(C)C)c2)n1` [Compound 1101], the IC50 is less than 100 nM.
As to `CNc1ccnc(Nc2ccc(OC)c(OC[C@@H]3CCN(C4CC4)C3)c2)n1` [Compound 1056], the IC50 is less than 100 nM.
The same measure, in the same setting: in the case of `CNc1cc(C2CCOCC2)c2cc(OC)c(C#CCN3CCCC3)cc2n1` [Compound 1049] it was less than 100 nM; in that of `CNC[C@H](C)NCc1cc(Nc2nc(C)cc(NC)n2)ccc1OC` [Compound 1102], less than 100 nM.
`CNc1cc(C)nc(Nc2ccc(OC)c(CNCCN3CCC3)c2)n1` [Compound 1081]: the IC50 was less than 100 nM.
The same measure, in the same setting: then `CNc1cc(C2CCOCC2)c2cc(OC)c(OCCCN3CC(O)C3)cc2n1` [Compound 1091], with less than 100 nM.
The same measure, in the same setting: then `CNc1cc(C)nc(Nc2ccc(OC)c(COCCN(C)C)c2)n1` [Compound 1105], with 100 to 1000 nM.
Same read-out and setting: then `CNc1ccnc(Nc2cnc(OC)c(OCCCN3CCC3)c2)n1` [Compound 1050], with less than 100 nM.
For `CCNc1cc(C)nc(Nc2ccc(OC)c(OC[C@H](O)CN3CCCC3)c2)n1` [Compound 1106], the IC50 was less than 100 nM.
On the same count and under the same terms, then `CNCC(C)COc1cc(Nc2nccc(NC)n2)ccc1OC` (stereo not drawn) [Compound 1086], with 1000 to 10000 nM; and `CCN1CC[C@@H](COc2cc(Nc3nccc(NC)n3)ccc2OC)C1` [Compound 1055], with less than 100 nM.
As to `CNC[C@@H](O)COc1cc(Nc2nccc(NC)n2)ccc1OC` [Compound 1054], the IC50 lay within 100 to 1000 nM.
On the same count and under the same terms, in the case of `CCN1CCO[C@H](COc2cc(Nc3nccc(NC)n3)ccc2OC)C1` [Compound 1071] it was greater than 10000 nM.
Take `CNc1cc(C)nc(Nc2ccc(OC)c(OC[C@H](O)CN3CC(C)C3)c2)n1` [Compound 1099]: the IC50 is less than 100 nM.
For the compound `CNc1cc2cc(OCCCN3CCCC3)c(OC)cc2cc1Cl` [Compound 1043], the IC50 fell in the range of 100 to 1000 nM.
The same measure, in the same setting: in the case of `CNc1ccnc(Nc2ccc(OC)c(OC[C@H](O)CN3CCC3)c2)n1` [Compound 1093] it was less than 100 nM; in that of `CNc1ccnc(Nc2ccc(OC)c(OC[C@H](CN3CCCC3)OC)c2)n1` [Compound 1082], 1000 to 10000 nM.
The same measure, in the same setting: then `CNCCNCc1cc(Nc2nccc(NC)n2)ccc1OC` [Compound 1076], with 100 to 1000 nM; and `CNCCNC(C)c1cc(Nc2nc(C)cc(NC)n2)ccc1OC` (stereo not drawn) [Compound 1095], with 100 to 1000 nM.
On the same count and under the same terms, then `CNc1ccnc(Nc2cnc(OC)c(OC[C@@H]3CCN(C)C3)c2)n1` [Compound 1065], with less than 100 nM; and `CNC[C@H](COc1cc(Nc2nccc(NC)n2)ccc1OC)OC` [Compound 1066], with 1000 to 10000 nM.
As for `CNc1cc(C)c2cc(OC)c(OC[C@H](C)CN3CCC3)cc2n1` [Compound 1088], the IC50 is less than 100 nM.
Regarding `CNCCCOc1cc(Nc2nccc(NC)n2)cnc1OC` [Compound 1053], the IC50 fell in the range of 100 to 1000 nM.
`CNc1ccnc(Nc2ccc(OC)c(CNCCN3CCC3)c2)n1` [Compound 1075]: the IC50 is less than 100 nM.
For `CNc1ccnc(Nc2ccc(OC)c(OC[C@H](O)CN3CCC3)c2)n1` [Compound 1047], the IC50 is less than 100 nM.
Turning to `CNC[C@@H](COc1cc(Nc2nccc(NC)n2)ccc1OC)OC` [Compound 1084], the IC50 was greater than 10000 nM.
Still for that read-out and setting: then `CCN1CCO[C@@H](COc2cc(Nc3nccc(NC)n3)ccc2OC)C1` [Compound 1068], with greater than 10000 nM; and `CNc1ccnc(Nc2ccc(OC)c(OC[C@@H](C)CN3CCC3)c2)n1` [Compound 1092], with 1000 to 10000 nM.
The same measure, in the same setting: in the case of `CNCCCOc1cc(Nc2nccc(NC)n2)ccc1OC` [Compound 1052] it was 100 to 1000 nM; in that of `CNc1cc(C)nc(Nc2cnc(OC)c(CNCCN3CCCC3)c2)n1` [Compound 1063], 100 to 1000 nM; in that of `CNc1cc(C)nc(Nc2ccc(OC)c(CNCCN3CC[C@@H](F)C3)c2)n1` [Compound 1094], less than 100 nM.
On the same count and under the same terms, then `CNc1ccnc(Nc2ccc(OC)c(OCCC(C)N3CCC3)c2)n1` (stereo not drawn) [Compound 1060], with 100 to 1000 nM; and `CNc1ccnc(Nc2ccc(OC)c(CNC[C@H]3CCCN3)c2)n1` [Compound 1062], with 1000 to 10000 nM.
Take `CNC[C@@H](C)NCc1cc(Nc2nc(C)cc(NC)n2)ccc1OC` [Compound 1103]: the IC50 was in the range of 1000 to 10000 nM.
Same read-out and setting: in the case of `CNc1ccnc(Nc2ccc(OC)c(ONC[C@@H]3CCCN3)c2)n1` [Compound 1061] it was 100 to 1000 nM; in that of `CNc1ccnc(Nc2cnc(OC)c(OCCCN3CCCC3)c2)n1` [Compound 1048], less than 100 nM; in that of `CNc1ccnc(Nc2ccc(OC)c(OCCC(C)NC)c2)n1` (stereo not drawn) [Compound 1073], 100 to 1000 nM.
For the compound `CNc1cc(C)nc(Nc2ccc(OC)c(COCCN3CCCC3)c2)n1` [Compound 1104], the IC50 was less than 100 nM.
Still for that read-out and setting: in the case of `CCN1CCC(O)(COc2cc(Nc3nccc(NC)n3)ccc2OC)C1` (stereo not drawn) [Compound 1096] it was greater than 10000 nM; in that of `CNc1ccnc(Nc2ccc(OC)c(OC[C@H]3CNCCO3)c2)n1` [Compound 1069], 1000 to 10000 nM.
Still for that read-out and setting: in the case of `CNc1ccnc(Nc2cnc(OC)c(OC[C@@H]3CCN(C4CC4)C3)c2)n1` [Compound 1051] it was less than 100 nM; in that of `CNc1ccnc(Nc2ccc(OC)c(OC[C@@H](CN3CCCC3)OC)c2)n1` [Compound 1083], 100 to 1000 nM.
On the same count and under the same terms, in the case of `CNc1ccnc(Nc2ccc(OC)c(OC[C@@H]3CNCCO3)c2)n1` [Compound 1072] it was greater than 10000 nM; in that of `CNc1ccnc(Nc2ccc(OC)c(OCC(C)CN3CCC3)c2)n1` (stereo not drawn) [Compound 1085], less than 100 nM; in that of `CNc1cc(C)nc(Nc2ccc(OC)c(OC[C@H](O)CN3CC(C)C3)c2)n1` [Compound 1100], 100 to 1000 nM.
